Source: US12152030B2 (NOVOSTAR PHARMACEUTICALS, LTD., priority 2019, dated 2024)
Structures can show the parent of a compound that is named as a salt.

Experiments:
MNK1 = MNK1 (Homo sapiens, UniProt Q9BUB5); assay: MNK biological enzyme assay (HTRF kinase assay), MNK1; assay type: biochemical; set-up: purchased ThermoFisher PV6023; details: 3 ng/ul MNK1, 1 μM STK1 peptide, 100 μM ATP
Protocol: A HTRF kinase assay kit (Cisbio, catalog number 62ST1PEB) was used to determine the MNK inhibitory activity of the compounds. All kinase reactions were performed in the reaction buffer (provided in the kit). The final MNK1 reaction involved 3 ng/ul recombinant MNK1 (ThermoFisher, PV6023), 1 μM MNK substrate peptide STK1 (provided in the kit), 100 μM ATP, and different concentrations of the inhibitory compounds of interest. The final MNK2 reaction involved 1 ng/μl recombinant MNK2 (ThermoFisher, PV5607), 1 μM MNK substrate peptide STK1 (provided in the kit), 100 μM ATP, and different concentrations of the inhibitory compounds of interest. The final DMSO concentration in each of the reactions was 1%.
The kinase reaction was performed in a final volume of 10 μl in a 384-well white flat-bottomed polystyrene plate. The MNK1/2 enzyme was pre-incubated with the compound and substrate peptide for 5 minutes, and then ATP was added thereto. After addition of ATP, the kinase reaction was incubated at 25° C. for 120 minutes or 60 minutes. The reaction was subsequently terminated by adding 5 μl of EU3+ substrate antibody detection reagent and 5 μl of XL665 detection reagent, and incubating for another 60 minutes. The luminescent signal was detected with an EnVision microplate reader counter (Perkin Elmer), and the signal from 10-point dilution series of the compounds was used to calculate the compound concentration (IC50) required to achieve 50% inhibition of enzyme activity.
In this respect, IC50 values which are less than 0.01 μM were marked as “+++”, which are from 0.01 to 0.1 μM were marked as “++”, and which are greater than 0.1 and up to 10.0 μM were marked as “+”, and NA meant “not detected”.

MNK2 = MNK2 (Homo sapiens, UniProt Q9HBH9); assay: KinomeScan, MNK2; assay type: binding
Excerpt: (§1) KinomeScan was used to determine the kinase selectivity of compound 2.

STK17A/DRAK1 = target: T1, STK17A/DRAK1 (Homo sapiens, UniProt Q9UEE5); assay: KinomeScan, DRAK1; assay type: binding
T1 sequence (Q9UEE5 1-414): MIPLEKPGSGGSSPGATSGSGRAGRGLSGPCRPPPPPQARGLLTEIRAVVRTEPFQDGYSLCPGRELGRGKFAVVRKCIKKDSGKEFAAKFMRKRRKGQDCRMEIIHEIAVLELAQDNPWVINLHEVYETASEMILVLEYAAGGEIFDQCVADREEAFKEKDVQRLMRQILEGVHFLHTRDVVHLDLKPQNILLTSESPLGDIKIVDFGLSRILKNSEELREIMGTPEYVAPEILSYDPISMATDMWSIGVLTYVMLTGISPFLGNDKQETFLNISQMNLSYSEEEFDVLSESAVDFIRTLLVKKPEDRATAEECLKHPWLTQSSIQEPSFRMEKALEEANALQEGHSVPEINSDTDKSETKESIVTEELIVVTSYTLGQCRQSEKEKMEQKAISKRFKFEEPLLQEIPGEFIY
Excerpt: as §1

GAK = target: T2, GAK (Homo sapiens, UniProt O14976); assay: KinomeScan, GAK; assay type: binding
T2 sequence (O14976 1-1311): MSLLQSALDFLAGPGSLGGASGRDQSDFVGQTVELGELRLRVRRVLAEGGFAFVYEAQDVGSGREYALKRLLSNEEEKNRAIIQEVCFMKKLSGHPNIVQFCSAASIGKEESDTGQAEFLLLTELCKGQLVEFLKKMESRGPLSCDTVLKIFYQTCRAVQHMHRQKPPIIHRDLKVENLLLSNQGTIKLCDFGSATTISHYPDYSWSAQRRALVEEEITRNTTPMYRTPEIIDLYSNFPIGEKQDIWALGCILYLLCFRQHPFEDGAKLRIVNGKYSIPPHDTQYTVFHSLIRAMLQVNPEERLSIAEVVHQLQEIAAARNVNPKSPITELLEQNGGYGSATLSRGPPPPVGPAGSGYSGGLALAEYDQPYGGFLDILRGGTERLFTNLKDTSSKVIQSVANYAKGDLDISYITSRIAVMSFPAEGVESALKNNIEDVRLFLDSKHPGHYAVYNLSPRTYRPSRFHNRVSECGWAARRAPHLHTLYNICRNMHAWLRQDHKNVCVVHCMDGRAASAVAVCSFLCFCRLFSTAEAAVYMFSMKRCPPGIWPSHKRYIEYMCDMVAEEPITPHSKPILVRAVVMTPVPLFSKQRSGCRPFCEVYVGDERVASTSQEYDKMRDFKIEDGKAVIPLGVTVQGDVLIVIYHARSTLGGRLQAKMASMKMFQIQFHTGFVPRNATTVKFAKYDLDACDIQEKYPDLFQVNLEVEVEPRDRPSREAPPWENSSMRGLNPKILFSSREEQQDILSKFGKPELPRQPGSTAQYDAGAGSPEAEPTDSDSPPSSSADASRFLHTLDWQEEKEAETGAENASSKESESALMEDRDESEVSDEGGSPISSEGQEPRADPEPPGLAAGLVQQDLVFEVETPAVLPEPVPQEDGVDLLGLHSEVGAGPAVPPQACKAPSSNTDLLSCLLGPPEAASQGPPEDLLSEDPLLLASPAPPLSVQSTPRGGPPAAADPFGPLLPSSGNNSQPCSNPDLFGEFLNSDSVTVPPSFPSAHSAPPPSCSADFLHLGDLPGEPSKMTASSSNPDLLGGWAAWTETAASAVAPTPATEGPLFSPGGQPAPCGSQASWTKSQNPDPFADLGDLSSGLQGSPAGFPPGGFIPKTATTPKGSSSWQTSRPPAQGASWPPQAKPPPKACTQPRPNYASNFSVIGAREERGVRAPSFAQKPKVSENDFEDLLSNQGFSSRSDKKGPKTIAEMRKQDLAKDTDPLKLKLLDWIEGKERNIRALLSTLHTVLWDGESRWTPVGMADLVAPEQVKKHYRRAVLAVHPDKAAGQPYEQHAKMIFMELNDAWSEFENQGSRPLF
Excerpt: as §1

MNK1, sequence (Q9BUB5 whole entry): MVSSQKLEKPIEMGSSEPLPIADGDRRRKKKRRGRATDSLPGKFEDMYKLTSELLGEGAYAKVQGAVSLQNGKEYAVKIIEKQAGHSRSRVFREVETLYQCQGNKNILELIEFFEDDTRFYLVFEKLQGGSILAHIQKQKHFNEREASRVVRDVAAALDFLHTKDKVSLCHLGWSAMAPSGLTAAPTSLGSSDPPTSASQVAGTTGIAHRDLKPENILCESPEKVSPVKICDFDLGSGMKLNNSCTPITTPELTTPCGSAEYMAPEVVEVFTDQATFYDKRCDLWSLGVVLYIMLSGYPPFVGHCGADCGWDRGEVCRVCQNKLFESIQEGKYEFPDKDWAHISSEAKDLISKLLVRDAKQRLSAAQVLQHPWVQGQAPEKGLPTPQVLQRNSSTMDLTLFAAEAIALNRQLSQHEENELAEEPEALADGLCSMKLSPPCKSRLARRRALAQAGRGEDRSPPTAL
MNK2, sequence (Q9HBH9 whole entry): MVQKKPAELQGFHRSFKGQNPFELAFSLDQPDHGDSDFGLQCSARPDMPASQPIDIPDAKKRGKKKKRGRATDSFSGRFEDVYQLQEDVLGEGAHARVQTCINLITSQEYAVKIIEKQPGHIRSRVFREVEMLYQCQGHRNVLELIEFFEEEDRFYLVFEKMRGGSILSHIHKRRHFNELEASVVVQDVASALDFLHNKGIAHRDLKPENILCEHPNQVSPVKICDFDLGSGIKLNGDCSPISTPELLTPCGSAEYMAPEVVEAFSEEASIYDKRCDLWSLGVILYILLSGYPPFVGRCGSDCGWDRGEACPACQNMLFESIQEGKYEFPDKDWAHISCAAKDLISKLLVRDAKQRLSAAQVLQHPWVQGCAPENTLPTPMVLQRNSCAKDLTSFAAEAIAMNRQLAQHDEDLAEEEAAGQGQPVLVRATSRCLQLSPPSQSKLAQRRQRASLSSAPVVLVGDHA

Cc1c2c(c(=O)n3c1C(=O)NC31CCCCC1)Nc1cc(N)ncc1C2 [Compound 2, 8′-amino-12′-methyl-6′,11′-dihydro-2′H-spiro[cyclohexane-1,3′-imidazole[1′,5′:1,6]pyrido[3,4-B][1,6]naphthyridine]-1′,5′-dione hydrochloride]
IC50 (MNK1): 10 to 100 nM | inhibition at 1 µM (MNK2): 99.5% | inhibition at 1 µM (STK17A/DRAK1): 62% | Kd (STK17A/DRAK1; dose response analysis, read-out: Kd of interaction with DRAK1): 370 nM | inhibition at 1 µM (GAK): 97.8% | Kd (GAK; dose response analysis, read-out: Kd of interaction with GAK): 50 nM
